Here are results for 25 compounds from patent US8278296B2, “Manipulation of brain CDP-diacylglycerol and uses thereof” (priority 2006, dated 2012).

The subject of one test is CDP-diacylglycerol. The test is described as follows: [3H]CDP-diacylglycerol accumulation in rat brain slices. It counts as cell-based. Conditions: for effect on CDP-diacylglycerol accumulation: rat cerebrocortical slices, 0.1-300 μM, other psychotropic compounds; for effect on CDP-DG production: monoamine receptor agonists, frontal cortex or hippocampal tissues, 5 mM LiCl; for effect on CDP-DG production / effect on [3H]CDP-diacylglycerol accumulation: 90 min; for effect on CDP-DG accumulation: MAOIs; for effect on [3H]CDP-diacylglycerol accumulation: rat hippocampal, prefrontal cortical and striatal slices, LiCl present.

The test system of the next test is rats. In words: Forced swim test. Particulars: for effect of neomycin pretreatment on immobility-reducing effects of antidepressant drugs: imipramine, fluoxetine, maprotiline; for effect on immobility times in forced swim test: modified regimen, i.p. at 3 h and 1 h before testing. It counts as in vivo, rat.
Test [1] concerns CDP-diacylglycerol/inositol phosphate. The test is described as follows: CDP-DG/IP ratio calculated from brain slice data. It counts as cell-based, rat. The method, then:
FIGS. 9A-9C are ratios of antidepressant-induced CDP-diacylglycerol versus inositol phosphates. The data in FIGS. 1A-1C, 2A-2B, 3A-3C, 4A-4B, and 5A-5C were recalculated by dividing the CDP-diacylglycerol effects of each concentration of each antidepressant agent by the corresponding effects of the agent on inositol phosphate accumulation to yield the CDP-diacylglycerol/inositol phosphate (CDP-DG/IP) ratios shown. […] Data for each agent were analyzed by One-Way ANOVA followed by posthoc Dunnett tests. ^#p<0.05; *p<0.01; compared to the respective control (zero drug concentration).
As used herein, the term “CDP-DG/IP ratio” refers to the relative value of an index which is the quotient of a level of cellular CDP-diacylglycerol divided by a level of inositol phosphate in a tissue or cell or tissue cultures thereof, e.g., a mammalian brain tissue or blood platelets, a human brain tissue or blood platelets, or other cells or tissues having the ability to metabolize CDP-diacylglycerol and phosphoinositides. Levels may be determined, but are not limited to, using molar concentration or a radiolabel.
To determine if antidepressant agents exert differential effects on CDP-DG production compared to PI hydrolysis, the ratios of CDP-DG production relative to the IPs (CDP-DG/IP ratio) in corresponding treatment conditions were examined.
Corresponding CDP-DG ratios were calculated as for the antidepressant agents. […] The ratios of CDP-DG production relative to IP accumulation are shown on the far right of the graphs in FIGS. 10A-10C and FIGS. 11A-11D.

The test system of the next test is inositol phosphates. The test is described as follows: [3H]inositol phosphate accumulation in rat brain slices. The format is cell-based. Conditions: for effect on IP accumulation: monoamine receptor agonists, frontal cortex or hippocampal tissues, 5 mM LiCl, 90 min; for effect on accumulation of IPs: 3-300 μM, hippocampus, frontal cortex, striatum slices.
A further test concerns phosphatidylinositides. The test is described as follows: [3H]inositol phospholipid (phosphatidylinositide) resynthesis in rat brain slices. It counts as cell-based. Conditions: for effect on PI synthesis: monoamine receptor agonists, frontal cortex or hippocampal tissues, 5 mM LiCl; for effect on PI synthesis / effect on [3H]inositol labeling of PIs (phosphatidylinositide synthesis): 90 min; for effect on [3H]inositol labeling of PIs (phosphatidylinositide synthesis): hippocampus, frontal cortex, striatum slices.

Test [2] concerns phosphoinositide-specific phospholipase C / PI metabolism. The test is described as follows: Blockade of PI hydrolysis (neomycin, U73122) on antidepressant-induced CDP-DG, PI and IP responses in brain slices. It counts as cell-based, rat. Particulars: for sensitivity of drug effects to inhibition by U73122: compared with tricyclic agents.
The subject of another test is 5HT2 receptor. Particulars: hippocampal slices. On the procedure: Hippocampal slices were incubated with either [^3H]inositol (FIGS. 13A-13B) or [^3H]cytidine (FIG. 13C) for 30 min, followed by addition of indicated concentrations of LY53857 (6-methyl-1-(1-methylethyl)-ergoline-8β-carboxylic acid 2-hydroxy-1-methylpropyl ester maleate). […] After 60 min, tritiated inositol phosphate, inositol phospholipids, or CDP-diacylglycerol were assayed. Each bar is the mean±SEM (n=6). Data for each analyte were normalized across experiments and test drugs and then were analyzed for each drug by One-Way ANOVA of responses measured at the four concentration conditions of LY53857 (0, 0.1, 1, 10 μM). The ANOVAs were followed with Dunnett tests comparing the response in the presence of each concentration of LY53857 to the control effect of the antidepressant alone.
To examine the extent to which the enhancing effects of antidepressant agents on inositol phosphate accumulation were dependent on postsynaptic 5HT2 receptor stimulation, each antidepressant was challenged with a range of concentrations of the 5HT2 receptor-selective antagonist, LY53857 (71-72). The antagonist was added after the prelabeling phase, but 15 min prior to the addition of α-methylserotonin to the incubating slices.

Setting [3] is: monoamine receptor agonists, frontal cortex or hippocampal tissues.

Entries after “also recorded” stand apart in the source; their conditions may differ.

Procedure for rats: One group of rats was acclimated once in the swim chamber and subgroups of three animals each were administered indicated doses (corresponding to 0, 3, 10, and 30 mg/kg) of imipramine at 24, 3, and 1 h before behavioral testing (conventional regimen). The other group of rats from the same batch was acclimated twice at 48 and 24 h before the time of testing and subgroups were administered the same doses of imipramine at 3 and 1 h before behavioral testing. Animals in each group were then tested in the forced swim apparatus for 5 min and the immobility times determined. […] Each bar is the mean±SEM (n=6). […] Animals were prepared as in FIG. 14 for the modified regimen. […] Test drugs were administered at indicated doses 3 and 1 h before behavioral testing. […] Immobility response data for set one were analyzed by one-way ANOVA (response by dose) in order to determine if the drug by itself produced significant effects. Data for set two were analyzed by one-way ANOVA (response by group, where group comprised control, neomycin, drug, neomycin+drug), followed by posthoc Tukey tests. […] The forced swim test (FST) was applied with some modifications. Rats were transferred to the testing room between 9:00-10:00 AM and allowed at least an hour before being placed individually into translucent polypropylene cylinders (46 cm tall×25 cm in diameter) containing 27 cm depth of water maintained at 25° C. […] After 15 min in the water, the rats were removed, toweled, and allowed to dry in a warm environment before being returned to their home cage. This acclimation step was repeated after 24 h, with the exposure time reduced from 15 to 5 min. […] During the second acclimation exposure, the duration of immobility was recorded for each animal. […] To adjudge that a rat had become immobile, the animal had to float passively in the water in a slightly hunched, but upright position, making only minimal movements necessary to keep its head above the water (65-66). On the third day when animals were to undergo experimental assessment, saline or the indicated antidepressant agents were administered i.p. at 3 h and at 1 h before behavioral testing. The drugs were dissolved in distilled-deionized water and diluted in saline. Control subjects received 0.9% saline. […] Data were analyzed by one-way analysis of variance (ANOVA).

For the compound `C#CCN(C)Cc1ccccc1` [pargyline], the “effect on CDP-diacylglycerol accumulation” value in the test with CDP-diacylglycerol is reported as “No significant effects or concentration-related effects”.
In the case of neomycin, the “effect of neomycin on SKF38393-induced decrease of immobility times” value in the test on rats (iv 2 h prior to testing) was “blocked”. Also, the “effect of neomycin pretreatment on immobility-reducing effects of antidepressant drugs” value is recorded as “completely reversed” with rats (iv 2 h prior to testing) and “abolished” in the test with rats (iv 2 h prior to testing, listed as Neomycin). Also, the “effect of neomycin by itself on basal immobility times” value in the test on rats (iv tail vein 2 h prior to testing) is recorded as “did not significantly alter”.
For the compound `CN(C)CCCN1c2ccccc2Sc2ccc(Cl)cc21` [chloropromazine], the “effect on CDP-diacylglycerol accumulation” value with CDP-diacylglycerol is on record as “No significant effects or concentration-related effects”.
`O=C(CCCN1CCC(O)(c2ccc(Cl)cc2)CC1)c1ccc(F)cc1` [haloperidol]: the “effect on CDP-diacylglycerol accumulation” value in the test with CDP-diacylglycerol is given as “No significant effects or concentration-related effects”.
For the compound `C[N+](C)(C)CCOC(N)=O` [carbachol], the CDP-DG/IP ratio entry in test [1] (setting [3]) is on record as “dramatic decrease”. The “effect on IP accumulation” value with inositol phosphates was “significantly increased”. The “effect on PI synthesis” value in the test on phosphatidylinositides is recorded as “failed to increase”. The “effect on CDP-DG production” value in the test on CDP-diacylglycerol was “significantly increased”.
Consider `CN1[C@@H]2CC[C@H]1C[C@@H](OC(c1ccccc1)c1ccccc1)C2` [benztropine], for which the “effect on CDP-diacylglycerol accumulation” value in the test with CDP-diacylglycerol is reported as “No significant effects or concentration-related effects”.
On to `CCN1CCCC1CNC(=O)c1cc(S(N)(=O)=O)ccc1OC` (centres unmarked) [sulpiride], for which the “effect on CDP-diacylglycerol accumulation” value in the test with CDP-diacylglycerol is listed as “No significant effects or concentration-related effects”.
Take `O=C1NC(=O)C(c2ccccc2)(c2ccccc2)N1` [phenytoin]: the “effect on CDP-diacylglycerol accumulation” value in the test on CDP-diacylglycerol is recorded as “No significant effects or concentration-related effects”.
For `COc1ccc2c(c1)CC[C@@H]1[C@@H]2CC[C@]2(C)[C@@H](NCCCCCCN3C(=O)CCC3=O)CC[C@@H]12` [U73123], the “effect on CDP-DG or IP responses” value in test [2] (inactive analog control, data not shown) was “without effect”.
Turning to `NNCCc1ccccc1` [phenelzine], the CDP-DG/IP ratio entry in test [1] (antidepressant agents, increasing drug concentrations, hippocampus, similar in cortical tissues) was “increased significantly”. Also, the “effect on [3H]inositol phospholipid synthesis (PI resynthesis)” value in the test on phosphatidylinositides (rat cortical slices, MAOIs) is “significant and concentration-dependent increases”. Besides, the “concentration at which CDP-DG effects achieved significance” value with CDP-diacylglycerol (frontal cortex slices, Dunnett's) turned out to be 1 µM. Moreover, the “effect on CDP-DG accumulation” value in the test on CDP-diacylglycerol (frontal cortex slices) is listed as “robust effects”.
Turning to `COc1ccc2c(c1)CC[C@@H]1[C@@H]2CC[C@]2(C)[C@@H](NCCCCCCN3C(=O)C=CC3=O)CC[C@@H]12` [U73122], the “inhibition of antidepressant-stimulated IP accumulation” value in test [2] (100 μM fluoxetine or 300 μM imipramine, paroxetine, maprotiline, nomifensine, hippocampal or cortical slices) was “completely blocked”. Further, the “inhibition of antidepressant drug effects on CDP-DG production” value in test [2] (0.1 to 10 μM U73122, cortical or hippocampal slices) was “significantly reduced, but was unable to completely block; also recorded: only partially reduced”. Also, in test [2] (U73122 alone), the “effect of inhibitor by itself on basal CDP-DG production” value is recorded as “did not significantly alter; also recorded: no significant effect” and the “effect of inhibitor by itself on basal IP accumulation” value is recorded as “did not significantly alter; also recorded: no significant effect”. Moreover, the “inhibition of SKF38393-induced IP accumulation” value in test [2] (brain slices) is listed as “blocked”.
On to `OCCN1CCN(CC/C=C2/c3ccccc3Sc3ccc(C(F)(F)F)cc32)CC1` [flupenthioxol], for which the “effect on CDP-diacylglycerol accumulation” value in the test on CDP-diacylglycerol is recorded as “No significant effects or concentration-related effects”.
On to `CNCCCC12CCC(c3ccccc31)c1ccccc12` [maprotiline], for which the “effect on accumulation of IPs” value with inositol phosphates is “significantly and dose-dependently stimulated”. For the same compound, the “effect on immobility times in forced swim test” value (shortened to “effect on immobility times”) with rats was “significant and dose-dependent reductions”. Moreover, the “effect on [3H]inositol labeling of PIs (phosphatidylinositide synthesis)” value in the test on phosphatidylinositides is on record as “significantly increased”. The “effect on [3H]CDP-diacylglycerol accumulation” value in the test on CDP-diacylglycerol was “significantly and dose-dependently enhanced”.
With `CN1C(=O)CN=C(c2ccccc2)c2cc(Cl)ccc21` [diazepam], in the test on CDP-diacylglycerol, the “effect on CDP-diacylglycerol accumulation” value is reported as “No significant effects or concentration-related effects”.
On to `NO` [hydroxylamine], for which the “effect on CDP-diacylglycerol accumulation” value in the test with CDP-diacylglycerol is given as “No significant effects or concentration-related effects”.
As for `Fc1ccc([C@@H]2CCNC[C@H]2COc2ccc3c(c2)OCO3)cc1` [paroxetine], the “sensitivity of drug effects to inhibition by U73122” value in test [2] is “more sensitive”.
Turning to `CNCCC(Oc1ccc(C(F)(F)F)cc1)c1ccccc1` (centres unmarked) [fluoxetine], the “sensitivity of drug effects to inhibition by U73122” value in test [2] was “more sensitive”. For the same compound, the “effect on accumulation of IPs” value with inositol phosphates is “significantly and dose-dependently stimulated”. The “effect on immobility times” value in the test with rats is “significant and dose-dependent reductions”. In the test with phosphatidylinositides, the “effect on [3H]inositol labeling of PIs (phosphatidylinositide synthesis)” value is listed as “significantly increased”. Also, the “effect on [3H]CDP-diacylglycerol accumulation” value in the test on CDP-diacylglycerol is “significantly and dose-dependently enhanced”.
Consider `CC(O)C(C)OC(=O)[C@@H]1C[C@@H]2c3cccc4c3c(cn4C(C)C)C[C@H]2N(C)C1.O=C(O)/C=C\C(=O)O` (stereo partly drawn) [LY53857, 6-methyl-1-(1-methylethyl)-ergoline-8β-carboxylic acid 2-hydroxy-1-methylpropyl ester maleate], for which, in the test on 5HT2 receptor (0.1 μM), the “increase of basal CDP-diacylglycerol” value turned out to be 20%. Besides, the “inhibition of IP responses to antidepressant agents” value with 5HT2 receptor (300 μM imipramine, desipramine, paroxetine, maprotiline or 100 μM fluoxetine) is given as “completely blocked”. Besides, in the test with 5HT2 receptor (0.1, 1, 10 μM), the “effect on basal levels of IPs” value is listed as “did not significantly alter” and the “effect on basal levels of PIs” value is “did not significantly alter”. In the test with 5HT2 receptor (all drugs), the “inhibition of antidepressant-induced CDP-diacylglycerol responses” value is “statistically significantly inhibited” and the “inhibition of antidepressant-induced PI labeling” value was “statistically significantly inhibited”.
For `[Cl-].[Li+]` [LiCl, lithium chloride], in the test with CDP-diacylglycerol (5 mM LiCl present or absent, fluoxetine or imipramine, frontal cortex or hippocampus, 60 min), the “effect on antidepressant drug-induced [3H]CDP-diacylglycerol production” value is “did not significantly enhance or inhibit; also recorded: did not significantly alter”.
`Oc1cc2c(cc1O)C(c1ccccc1)CNCC2` (racemic) [SKF38393, (+/−)-1-phenyl-2,3,4,5-tetrahydro-(1H)-3-benzazepine-7,8-diol]: the CDP-DG/IP ratio result in test [1] (setting [3]) is recorded as “increased CDP-DG/IP ratios significantly”. In test [1] (prefrontal cortical slices), the “ratio of CDP-DG relative to PIs (CDP-DG/PI ratio)” value is recorded as “significantly enhanced” and the “ratio of CDP-DG relative to both inositol derivatives (CDP-DG/IP&PI)” value is recorded as “significantly enhanced”. Also, in the test with inositol phosphates, the “effect on IP accumulation” value was “significantly increased”. Moreover, the “effect on immobility times” value with rats was “significantly decreased immobility times”. Moreover, the “effect on PI synthesis” value with phosphatidylinositides is listed as “significantly enhanced”. Also, the “effect on CDP-DG production” value in the test on CDP-diacylglycerol is “significantly increased”.
For the compound `N[C@@H]1C[C@H]1c1ccccc1` (racemic) [tranylcypromine], the “effect on CDP-DG accumulation” value with CDP-diacylglycerol (frontal cortex slices) is given as “statistically significant but modest effects”.
In the case of `C#CCN(C)[C@H](C)Cc1ccccc1` [selegiline], in the test on CDP-diacylglycerol, the “effect on CDP-diacylglycerol accumulation” value is “No significant effects or concentration-related effects”.
Take `CN1Cc2c(N)cccc2C(c2ccccc2)C1` (centres unmarked) [nomifensine]: the “effect on [3H]CDP-diacylglycerol accumulation” value in the test on CDP-diacylglycerol was “significantly and dose-dependently enhanced”.
As for `O=C1CN=C(c2ccccc2)c2cc([N+](=O)[O-])ccc2N1` [nitrazepam], the “effect on CDP-diacylglycerol accumulation” value in the test with CDP-diacylglycerol is “No significant effects or concentration-related effects”.
For `CCN(CC)CCCC(C)Nc1c2ccc(Cl)cc2nc2ccc(OC)cc12` (centres unmarked) [quinacrine], in the test with CDP-diacylglycerol, the “effect on CDP-diacylglycerol accumulation” value was “No significant effects or concentration-related effects”.
